Broadly, the inhibition is the change of the read-out against control, counted positive when it falls.

The source of these data is article PMC10779433, “Bidirectional Allosteric Coupling between PIP2 Binding and the Pore of the Oncochannel TRPV6” (International Journal of Molecular Sciences, 2024).

The test system of one test is TRPV6 D580K. The test can be described thus: Whole-cell patch clamp, TRPV6 D580K. The following applies: HEK293 cells, 10 μM pal-PIP2 peptide, Figure 5C (substitution reduces the inhibition). The test is classed as cell-based, human. The source says:
N-terminally TagRFP-labeled human TRPV6 (725 aa) was kindly provided by R. Bhardwaj and M. Hediger (University of Bern, Bern, Switzerland). This variant is translated from the first ATG codon and thus deviates from the non-ATG-initiated protein which is expressed in vivo (accession number NM_018646.6) by lacking 40 amino acids of the very N-terminus. For N-terminal labeling with EYFP, TRPV6 was cloned into pEYFP-C1 (Clontech) via EcoRI and SacII restriction sites. Mutations (F468A, R470A, F472A, K484A/Q, G488R, R492A/Q, I575A, G579A, D580A/K, H582A, W583A/F, H587A, R589A, W593A, R632A/Q, R470A, W583F) were introduced using the QuickChange XL site-directed mutagenesis kit (Stratagene, San Diego, CA, USA) and Pfu DNA Polymerase (Promega, Madison, WI, USA). pTagRFP-hTRPV6 I575A was kindly provided by the lab of M. Hediger (University of Bern, Bern, Switzerland). Forward and reverse primers for site-directed mutagenesis were synthesized by Eurofins genomics GmbH (Wien, Vienna, Austria). Intactness of the constructs in terms of sequence was confirmed by sequencing (Microsynth Austria GmbH, Wien, Vienna, Austria; Eurofins genomics GmbH, Wien, Vienna, Austria). […]
Electrophysiological experiments were performed at 20 °C to 24 °C in whole-cell recording configurations of the patch clamp technique. […] The liquid junction potential was determined as 12 mV; the voltages were not adjusted. […]
(In patch-clamp work, channel activity is measured electrically.)

The target of a further test is T1, TRPV6 WT (Homo sapiens, UniProt Q9H1D0).
T1 construct: expressed in transfected cells; host or cells: HEK293 cells, transient transfection
T1 sequence (Q9H1D0 41-765 limits assumed): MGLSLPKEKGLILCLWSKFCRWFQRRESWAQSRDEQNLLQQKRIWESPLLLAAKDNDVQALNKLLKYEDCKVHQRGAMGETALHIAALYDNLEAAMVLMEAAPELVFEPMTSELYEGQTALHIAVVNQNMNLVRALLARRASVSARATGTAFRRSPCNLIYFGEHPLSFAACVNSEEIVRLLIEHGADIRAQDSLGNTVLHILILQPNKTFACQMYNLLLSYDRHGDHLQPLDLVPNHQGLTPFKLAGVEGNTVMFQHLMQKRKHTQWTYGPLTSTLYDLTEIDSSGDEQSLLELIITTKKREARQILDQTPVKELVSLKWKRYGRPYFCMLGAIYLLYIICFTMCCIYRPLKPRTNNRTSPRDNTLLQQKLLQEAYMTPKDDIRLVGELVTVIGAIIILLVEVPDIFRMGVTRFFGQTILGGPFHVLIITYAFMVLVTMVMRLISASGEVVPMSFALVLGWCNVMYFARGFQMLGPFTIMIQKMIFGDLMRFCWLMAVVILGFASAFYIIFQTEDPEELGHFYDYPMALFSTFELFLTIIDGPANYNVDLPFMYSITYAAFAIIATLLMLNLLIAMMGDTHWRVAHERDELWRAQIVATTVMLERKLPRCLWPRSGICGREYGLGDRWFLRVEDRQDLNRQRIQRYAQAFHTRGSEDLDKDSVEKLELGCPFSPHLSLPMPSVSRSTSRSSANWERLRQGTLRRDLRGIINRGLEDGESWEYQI
The experiment in a line: Fura-2 Ca2+ imaging, TRPV6 WT. The following applies: 20 μM pal-PIP2 peptide; for inhibition at 20 µM: HEK293, read-out: mean percentage of inhibition (Fura-2 signal), HEK293 cells. The test is classed as cell-based.

SMILES strings stand for the structures. Where two headings read alike, the source gives them in different places. Residues, ends and D or L forms follow the SMILES beside them. *: point of attachment. Palmitoyl = CCCCCCCCCCCCCCCC(=O)*

`CCCCCCCCCCCCCCCC(=O)N[C@@H](Cc1c[nH]cn1)C(=O)N[C@@H](CCCNC(=N)N)C(=O)N[C@@H](CCC(N)=O)C(=O)N[C@@H](CCCCN)C(=O)N[C@@H](Cc1c[nH]cn1)C(=O)N[C@@H](Cc1ccccc1)C(=O)N[C@@H](CCC(=O)O)C(=O)N[C@@H](CCCCN)C(=O)N[C@@H](CCCNC(=N)N)C(=O)N[C@@H](CCCNC(=N)N)C(N)=O` [pal-PIP2 peptide] (Palmitoyl-HRQKHFEKRR-NH2): the “inhibitory effect of pal-PIP2 peptide vs WT” value in the test on TRPV6 D580K is “interfered with the inhibitory effect of the pal-PIP2 peptide”. Further, the inhibition at 20 µM at TRPV6 WT (applied after 0.5 μM cis-22a, Figure 6D, not significantly different from reverse order) is 9.18%; at TRPV6 WT (applied first (before cis-22a), Figure 6C), 10.8%. Also, the “decrease in cytosolic Ca2+ level” value on TRPV6 WT (HEK293 cells, 2 mM Ca2+, Figure 1B, significantly stronger than control peptide (p < 0.05)) is reported as “approximately 11%”. The “reduction of intracellular Ca2+ level” value at TRPV6 WT (HEK293 cells, 2 mM Ca2+, Figure 2A, comparison with G488R) is on record as “about 13%”.
